Reference: PubChem BioAssay (NCI)
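Protocol summary: plate cells (96-well), add compound at 5 concentrations, incubate 48 h, interpolate endpoints linearly. TGI: concentration producing complete growth inhibition.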

Columns and labels:
Experiment in all cases: NCI anticancer screen, dose series, 48 h
[1] = test system: SF-295 CNS
[2] = test system: NCI-H460 lung
[3] = test system: DMS 114 small cell lung
[4] = test system: RXF 393 renal
[5] = test system: SK-OV-3 ovarian
[6] = test system: HOP-62 NSCLC
[7] = test system: UACC-62 melanoma
[8] = test system: NCI-H226 lung
[9] = test system: HT29 colon
[10] = test system: SN12C renal
[11] = test system: IGROV1 ovarian
[12] = test system: OVCAR-4 ovarian
[13] = test system: EKVX NSCLC
[14] = test system: SNB-19 CNS
[15] = test system: HOP-92 NSCLC
[16] = test system: MALME-3M melanoma
[17] = test system: DLD-1 colon
[18] = test system: HCT-116 colon
[19] = test system: NCI-H522 lung
[20] = test system: MOLT-4 leukemia
[21] = test system: SF-539 CNS
[22] = test system: RPMI-8226 leukemia
[23] = test system: HOP-18 NSCLC
[24] = test system: K-562 leukemia
[25] = test system: SK-MEL-2 melanoma
[26] = test system: SNB-78 CNS
[27] = test system: A549 NSCLC
[28] = test system: HCC-2998 colon
[29] = test system: UO-31 renal
[30] = test system: SNB-75 CNS
[31] = test system: OVCAR-3 ovarian
[32] = test system: SF-268 CNS
[33] = test system: KM12 colon
[34] = test system: LOX IMVI melanoma
[35] = test system: SW-620 colon
[36] = test system: LXFL 529 NSCLC
[37] = test system: NCI-H23 lung
[38] = test system: M19-MEL melanoma
[39] = test system: A498 renal
[40] = test system: TK-10 renal
[41] = test system: CAKI-1 renal
[42] = test system: SK-MEL-5 melanoma
[43] = test system: SK-MEL-28 melanoma
[44] = test system: COLO 205 colon
[45] = test system: UACC-257 melanoma
[46] = test system: DMS 273 small cell lung
[47] = test system: OVCAR-8 ovarian
[48] = test system: ACHN renal
[49] = test system: HCT-15 colon
[50] = test system: 786-0 renal
[51] = test system: OVCAR-5 ovarian
[52] = test system: U251 CNS
[53] = test system: M14 melanoma
[54] = test system: KM20L2 colon
[55] = test system: CCRF-CEM leukemia
[56] = test system: SR leukemia
[57] = test system: XF 498 CNS
[58] = test system: HL-60(TB) leukemia
[59] = test system: RXF-631 renal

SMILES: CS/C(N)=N\NC(=O)CCC(=O)Nc1ccccc1C(F)(F)F
- TGI [1]: > 100 µM
- TGI [2]: > 100 µM
- TGI [3]: > 100 µM
- TGI [4]: > 100 µM
- TGI [5]: > 100 µM
- TGI [6]: > 100 µM
- TGI [7]: > 100 µM
- TGI [8]: > 100 µM
- TGI [9]: > 100 µM
- TGI [10]: > 100 µM
- TGI [11]: > 100 µM
- TGI [12]: > 100 µM
- TGI [13]: > 100 µM
- TGI [14]: > 100 µM
- TGI [15]: > 100 µM
- TGI [16]: > 100 µM
- TGI [17]: > 100 µM
- TGI [18]: > 100 µM
- TGI [19]: > 100 µM
- TGI [20]: > 100 µM
- TGI [21]: > 100 µM
- TGI [22]: > 100 µM
- TGI [23]: > 100 µM
- TGI [24]: > 100 µM
- TGI [25]: > 100 µM
- TGI [26]: > 100 µM
- TGI [27]: > 100 µM
- TGI [28]: > 100 µM
- TGI [29]: > 100 µM
- TGI [30]: > 83.1 µM
- TGI [31]: > 100 µM
- TGI [32]: > 100 µM
- TGI [33]: > 100 µM
- TGI [34]: > 100 µM
- TGI [35]: > 100 µM
- TGI [36]: > 100 µM
- TGI [37]: > 100 µM
- TGI [38]: > 100 µM
- TGI [39]: > 100 µM
- TGI [40]: > 100 µM
- TGI [41]: > 100 µM
- TGI [42]: > 100 µM
- TGI [43]: > 100 µM
- TGI [44]: > 100 µM
- TGI [45]: > 100 µM
- TGI [46]: > 100 µM
- TGI [47]: > 100 µM
- TGI [48]: > 100 µM
- TGI [49]: > 100 µM
- TGI [50]: > 100 µM
- TGI [51]: > 100 µM
- TGI [52]: > 100 µM
- TGI [53]: > 100 µM
- TGI [54]: > 58.5 µM
- TGI [55]: > 100 µM
- TGI [56]: > 100 µM

SMILES: CCOC(=O)CC1(C(=O)OCC)c2[nH]c3ccccc3c2CCN1Cc1ccccc1 (stereo not given)
- TGI [57]: 41.4 µM
- TGI [1]: 32.8 µM
- TGI [2]: 42.6 µM
- TGI [3]: 38.6 µM
- TGI [4]: 32.7 µM
- TGI [5]: > 100 µM
- TGI [6]: 33.6 µM
- TGI [7]: 32.2 µM
- TGI [8]: 35.5 µM
- TGI [9]: 29.8 µM
- TGI [10]: 27.8 µM
- TGI [11]: 52.9 µM
- TGI [12]: 55.2 µM
- TGI [13]: 50.8 µM
- TGI [14]: > 100 µM
- TGI [15]: 32.2 µM
- TGI [16]: 37.3 µM
- TGI [17]: 89.4 µM
- TGI [18]: 31.8 µM
- TGI [19]: 28.1 µM
- TGI [20]: 49.1 µM
- TGI [21]: 35.8 µM
- TGI [23]: 54.4 µM
- TGI [24]: > 100 µM
- TGI [25]: 32.8 µM
- TGI [26]: 81.2 µM
- TGI [27]: 40.3 µM
- TGI [28]: 28.9 µM
- TGI [58]: 62.5 µM
- TGI [29]: 64.1 µM
- TGI [30]: 45.8 µM
- TGI [31]: 27.4 µM
- TGI [32]: 37.7 µM
- TGI [33]: 40.1 µM
- TGI [34]: 32.9 µM
- TGI [35]: > 100 µM
- TGI [36]: > 100 µM
- TGI [37]: 33 µM
- TGI [38]: 27.6 µM
- TGI [39]: 35.9 µM
- TGI [40]: > 100 µM
- TGI [41]: 99.2 µM
- TGI [42]: 34.6 µM
- TGI [43]: 39.4 µM
- TGI [44]: 34.3 µM
- TGI [45]: 40.5 µM
- TGI [46]: 32 µM
- TGI [47]: 78.7 µM
- TGI [48]: 50.9 µM
- TGI [49]: > 100 µM
- TGI [50]: 31.8 µM
- TGI [51]: 39.5 µM
- TGI [52]: 29 µM
- TGI [53]: 35.8 µM
- TGI [54]: 32.5 µM
- TGI [55]: > 100 µM
- TGI [56]: 52.6 µM

SMILES: CCOc1ccccc1N=Nc1ccc2oc(=O)c(C(=O)Nc3cccc(C)c3)cc2c1
- TGI [57]: > 100 µM
- TGI [1]: > 100 µM
- TGI [3]: 63.4 µM
- TGI [5]: > 100 µM
- TGI [6]: > 100 µM
- TGI [7]: > 100 µM
- TGI [9]: > 100 µM
- TGI [10]: > 100 µM
- TGI [11]: > 100 µM
- TGI [12]: 79.4 µM
- TGI [13]: 95.2 µM
- TGI [14]: 99.4 µM
- TGI [16]: > 100 µM
- TGI [17]: > 100 µM
- TGI [18]: 51.7 µM
- TGI [19]: 57.1 µM
- TGI [20]: 80.2 µM
- TGI [21]: 91.1 µM
- TGI [22]: > 100 µM
- TGI [24]: 88 µM
- TGI [25]: 46.9 µM
- TGI [26]: 91.3 µM
- TGI [27]: > 100 µM
- TGI [28]: 96.9 µM
- TGI [58]: 63.3 µM
- TGI [29]: > 100 µM
- TGI [30]: > 100 µM
- TGI [31]: 62.4 µM
- TGI [32]: > 100 µM
- TGI [33]: > 100 µM
- TGI [34]: 61.6 µM
- TGI [35]: > 100 µM
- TGI [36]: > 100 µM
- TGI [37]: 94.7 µM
- TGI [38]: 93.4 µM
- TGI [39]: > 100 µM
- TGI [40]: > 100 µM
- TGI [41]: > 100 µM
- TGI [59]: > 100 µM
- TGI [42]: 32.8 µM
- TGI [43]: 72.3 µM
- TGI [44]: 71.8 µM
- TGI [45]: > 100 µM
- TGI [46]: > 100 µM
- TGI [47]: 86 µM
- TGI [49]: > 100 µM
- TGI [50]: > 100 µM
- TGI [51]: > 100 µM
- TGI [52]: 81.2 µM
- TGI [53]: 59.5 µM
- TGI [54]: > 100 µM
- TGI [55]: 83.8 µM

SMILES: CCOC(=O)C1=C(C)N(NC(=O)Nc2ccccc2)C(=O)C1=P(c1ccccc1)(c1ccccc1)c1ccccc1
- TGI [57]: 95.3 µM
- TGI [1]: > 100 µM
- TGI [2]: > 100 µM
- TGI [3]: > 100 µM
- TGI [4]: 72.5 µM
- TGI [5]: > 100 µM
- TGI [6]: > 100 µM
- TGI [7]: 89.9 µM
- TGI [8]: > 100 µM
- TGI [9]: > 100 µM
- TGI [10]: > 100 µM
- TGI [11]: > 100 µM
- TGI [12]: > 100 µM
- TGI [13]: > 100 µM
- TGI [14]: > 100 µM
- TGI [15]: > 100 µM
- TGI [16]: > 100 µM
- TGI [17]: > 100 µM
- TGI [18]: > 100 µM
- TGI [19]: 63.8 µM
- TGI [20]: 65.6 µM
- TGI [21]: 53.3 µM
- TGI [22]: 82.5 µM
- TGI [23]: > 100 µM
- TGI [24]: > 100 µM
- TGI [25]: 98.3 µM
- TGI [27]: > 100 µM
- TGI [28]: > 100 µM
- TGI [58]: 50.4 µM
- TGI [29]: > 100 µM
- TGI [30]: > 100 µM
- TGI [31]: > 100 µM
- TGI [32]: > 100 µM
- TGI [34]: > 100 µM
- TGI [35]: > 100 µM
- TGI [36]: > 100 µM
- TGI [37]: > 100 µM
- TGI [38]: > 100 µM
- TGI [39]: > 100 µM
- TGI [40]: > 100 µM
- TGI [41]: > 100 µM
- TGI [42]: > 100 µM
- TGI [44]: 56.4 µM
- TGI [45]: > 100 µM
- TGI [46]: > 100 µM
- TGI [47]: > 100 µM
- TGI [48]: > 100 µM
- TGI [49]: > 100 µM
- TGI [50]: > 100 µM
- TGI [51]: > 100 µM
- TGI [52]: > 100 µM
- TGI [53]: > 100 µM
- TGI [54]: > 100 µM
- TGI [55]: 96.7 µM
- TGI [56]: 56.1 µM
